Measured values published in the NIST ThermoML archive (doi:10.1016/j.jct.2019.01.004).
± gives the expanded uncertainty stated by the source.

Conditions: Liquid, Ebulliometric method (Recirculating still)

vapor or sublimation pressure (337.68 K)	vapor or sublimation pressure (352.62 K)	SMILES
101.3 ± 3.7 kPa	–	CO [methanol]
–	101.3 ± 3.7 kPa	CCC(=O)OC [methyl propanoate]
